Holding throughout (format): in vivo
The test system of assay [1] is Cabbage Looper [Trichoplusia ni (Hubner)]. Briefly: Cabbage looper leaf dip (CL), 3-5 days. The conditions noted are these: percent in solution, second-instar larvae. The method, boiled down:
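Squash cotyledons dipped 2-3 s in compound in 50-50 acetone-water, dried, then infested with 5 second-instar larvae and held at high humidity. Mortality scored after 3-5 days at concentrations from 0.1% downward. LC50 from dosage-mortality curves, expressed as percent compound in solution.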

Assay [2] has as its system Housefly [Musca domestica]. Briefly: Housefly contact mortality in dishes (HF), 48 hours. As to conditions: μg of test compound per 25 female flies. The method, boiled down: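 LC50 (μg compound per 25 female flies) derives from dosage-mortality curves of 48 h kill. Flies, females 1-2 days old, were held 25 per cage over a dish coated with dried acetone deposit, starting at 100 μg per cage and descending.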

For assay [3], the system named is Black Bean Aphid [Aphis fabae (Scop.)]. Briefly: Black bean aphid spray test on nasturtium (BBA), 48 hours. As to conditions: percent of test compound in sprayed solution. Summed up: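 LC50, given as percent test compound in the sprayed liquid, was calculated from dosage-mortality curves using concentrations from 0.05% downward. Sprays in 50:50 acetone-water went to runoff on ~5 cm nasturtiums carrying 25-50 aphids of mixed ages, one day after infestation. Deaths were counted 48 h later under greenhouse conditions.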

For assay [4], the system named is Maize weevil [Sitophilus zeamais (Motschulsky)]. Put plainly: Maize weevil on dipped corn seeds (MW), 48 hours. The conditions noted are these: percent in solution, adult weevils. On the procedure:
The compounds in Tables 1 and 2 above were tested for insecticidal activity using the following testing procedures. LC50 values, based on the results of these tests and calculated according to dosage-mortality curves, are expressed in Table 3.
Maize weevil [Sitophilus zeamais (Motschulsky)]:
Test compounds were diluted in a 50:50 acetone:water solution. Four corn seeds [Zea mays (L.)] which had been immersed in test solutions for 2-3 seconds and allowed to dry were placed in containers together with 10 adult weevils. The containers were covered and kept at a temperature of about 25° C. Mortality was recorded after 48 hours. Test concentrations ranged from 0.01% down to that at which 50% mortality occurred. The LC50 values are expressed below in Table 3 under the heading "MW" in terms of percent of the test compound in solution.

Assay [5] deals with Tobacco Budworm [Heliothis virescens (Fabricius)] eggs. Briefly: Tobacco budworm eggs (TBW-E). As to conditions: percent in solution; 2-day old eggs. The method, boiled down:
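Paper-towel patches of 2-day-old eggs dipped in acetone solutions of compound (0.1% downward), held on larval rearing medium at 78° F. Mortality scored once all control eggs had hatched and larvae were feeding; LC50 from dosage-mortality curves, expressed as percent compound in solution.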

A value given as a limit tells only on which side of the number the result lay.

`CC(C)C(=Nc1cccc(F)c1)OCc1ccc(F)c(Oc2ccc(F)cc2)c1` [Compound 342]: the “LC50 CL” value in assay [1] came out at 0.0008%. Besides, the “LC50 HF” value in assay [2] was determined as 4.1 µg. Besides, in assay [3], the “LC50 BBA” value worked out at 0.0006%. In addition, the “LC50 MW” value in assay [4] was greater than 0.01%. For the same molecule, the “LC50 TBW E (eggs)” value in assay [5] was 0.04%.
As to `Cc1ccc(Oc2cccc(COC(=Nc3ccc(C(C)(C)C)cc3)C(C)C)c2)cc1` [Compound 344], the “LC50 CL” value in assay [1] was determined as 0.024%. The “LC50 HF” value in assay [2] was greater than 100 µg. Moreover, the “LC50 BBA” value in assay [3] was 0.008%. Besides, in assay [4], the “LC50 MW” value is given as greater than 0.01%. Besides, in assay [5], the “LC50 TBW E (eggs)” value is greater than 0.1%.
Turning to `COc1ccc(Oc2cccc(COC(=Nc3ccc(C(C)(C)C)cc3)C(C)C)c2)cc1` [Compound 345], the “LC50 CL” value in assay [1] is on record as 0.018%. Besides, in assay [2], the “LC50 HF” value was greater than 100 µg. The “LC50 BBA” value in assay [3] came out at 0.006%. Further, the “LC50 MW” value in assay [4] is greater than 0.01%. For the same molecule, the “LC50 TBW E (eggs)” value in assay [5] was greater than 0.1%.
In the case of `CCOc1ccc(N=C(OCc2cccc(Oc3ccccc3)c2)C(C)C)cc1Cl` [Compound 368], the “LC50 CL” value in assay [1] was 0.002%. In addition, the “LC50 HF” value in assay [2] is less than 100 µg. In addition, in assay [3], the “LC50 BBA” value stood at 0.001%. Moreover, the “LC50 MW” value in assay [4] was greater than 0.01%. Also, the “LC50 TBW E (eggs)” value in assay [5] turned out to be 0.04%.
In the case of `CCOc1ccc(N=C(OCc2cccc(Oc3ccccc3)c2)C(C)C)cc1` [Compound 371], the “LC50 CL” value in assay [1] is 0.0022%. In addition, in assay [2], the “LC50 HF” value is less than 100 µg. Besides, in assay [3], the “LC50 BBA” value worked out at 0.0004%. Also, the “LC50 MW” value in assay [4] is given as greater than 0.01%. The “LC50 TBW E (eggs)” value in assay [5] is reported as greater than 0.1%.
On the same counts, the results for `CCOc1ccc(N=C(OCc2ccc(F)c(Oc3ccc(Cl)cc3)c2)C(C)C)cc1` [Compound 372] are greater than 0.1%, greater than 100 µg, 0.001%, greater than 0.01% and greater than 0.1%.
Taken in the same sequence, the figures for `CCOc1ccc(N=C(OCc2ccc(F)c(Oc3ccccc3)c2)C(C)C)cc1` [Compound 373] were greater than 0.1%, less than 100 µg, 0.001%, greater than 0.01% and greater than 0.1%.
Turning to `CC(C)C(=Nc1ccc(I)c(Cl)c1)OCc1cccc(Oc2ccc(F)cc2)c1` [Compound 374], the “LC50 CL” value in assay [1] worked out at 0.00058%. Further, the “LC50 HF” value in assay [2] is less than 100 µg. Also, the “LC50 BBA” value in assay [3] is recorded as 0.0008%. For the same molecule, the “LC50 MW” value in assay [4] is recorded as greater than 0.01%. Besides, the “LC50 TBW E (eggs)” value in assay [5] is listed as 0.02%.
For the molecule `CC(C)C(=Nc1ccc(F)c(Br)c1)OCc1ccc(F)c(Oc2ccc(Cl)cc2)c1` [Compound 379], in assay [1], the “LC50 CL” value came out at 0.00075%. In assay [2], the “LC50 HF” value is less than 100 µg. Also, the “LC50 BBA” value in assay [3] is recorded as 0.0006%. For the same molecule, in assay [4], the “LC50 MW” value is listed as greater than 0.01%. The “LC50 TBW E (eggs)” value in assay [5] worked out at 0.02%.
On the same counts, the results for `CC(C)C(=Nc1ccc(Br)c(Br)c1)OCc1ccc(F)c(Oc2ccc(F)cc2)c1` [Compound 383] are 0.00029%, less than 100 µg, 0.0006%, greater than 0.01% and 0.038%.
On the same counts, the results for `CC(C)C(=Nc1ccc(Br)c(Br)c1)OCc1ccc(F)c(Oc2ccccc2)c1` [Compound 384] are greater than 0.1%, less than 100 µg, 0.0008%, greater than 0.01% and 0.025%.
Regarding `CC(C)C(=Nc1ccc(I)c(Cl)c1)OCc1ccc(F)c(Oc2ccc(F)cc2)c1` [Compound 385], the “LC50 CL” value in assay [1] was greater than 0.1%. Also, the “LC50 HF” value in assay [2] is less than 100 µg. The “LC50 BBA” value in assay [3] was greater than 0.05%. In addition, in assay [4], the “LC50 MW” value is recorded as greater than 0.01%. In assay [5], the “LC50 TBW E (eggs)” value is greater than 0.1%.

Values taken from US5045566A, “Novel imidate insecticides” (ICI Americas Inc., priority 1989, dated 1991).
